# Measurements reported in paper PMC10381170, “1,3,4-Oxadiazole and 1,3,4-Thiadiazole Nortopsentin Derivatives against Pancreatic Ductal Adenocarcinoma: Synthesis, Cytotoxic Activity, and Inhibition of CDK1” (Marine Drugs, 2023).
# Assays:
# PDAC cells = assay: SRB antiproliferative assay, whole PDAC panel; assay type: cell-based; conditions: Homo sapiens; seven PDAC models, 72 h; read-out: IC50 values, range over the PDAC cell panel
# Protocol: The cytotoxic activity of the nortopsentin derivatives 3b, 3e, 4c, 5b, and 6c on pancreatic cancer cells (BxPC-3, Panc-1, Suit-2, Capan-1, PaTu-T, primary PDAC-3 and resistant Panc-1-GR cells) was determined by the sulforhodamine B (SRB) chemosensitivity assay, as described previously. Cells were plated in 96-well flat-bottom plates at final concentrations ranging from 3000–5000 cells/well in 100 µL of medium. After a 24 h pre-incubation period, cells were treated with the compounds at nine screening concentrations (from 0.1 μM to 40 μM) in triplicate and incubated at 37 °C for 72 h. After the treatment, cells were fixed with 25 µL of cold 50% trichloroacetic acid (TCA) for each well and incubated at 4 °C for 1 h. Afterwards, plates were washed five times with demi-water and air-dried overnight. Then, the plates were stained with 50 µL of 0.4% SRB solution in 1% acetic acid for 15 min. The excess stain was rinsed off by placing the plates under running 1% acetic acid and allowed to dry at room temperature overnight. SRB staining was rinsed with 150 µL tris(hydroxymethyl)aminomethane solution pH = 8.8 (TRIS-base), and the optical density (OD) was read at 492 nm. Each assay was performed in triplicate and assays were repeated at least three times. […]
# Capan-1 cells = assay: SRB antiproliferative assay, Capan-1; assay type: cell-based, human
# Protocol: (§1) The cytotoxic activity of the nortopsentin derivatives 3b, 3e, 4c, 5b, and 6c on pancreatic cancer cells (BxPC-3, Panc-1, Suit-2, Capan-1, PaTu-T, primary PDAC-3 and resistant Panc-1-GR cells) was determined by the sulforhodamine B (SRB) chemosensitivity assay, as described previously. Cells were plated in 96-well flat-bottom plates at final concentrations ranging from 3000–5000 cells/well in 100 µL of medium. After a 24 h pre-incubation period, cells were treated with the compounds at nine screening concentrations (from 0.1 μM to 40 μM) in triplicate and incubated at 37 °C for 72 h. After the treatment, cells were fixed with 25 µL of cold 50% trichloroacetic acid (TCA) for each well and incubated at 4 °C for 1 h. Afterwards, plates were washed five times with demi-water and air-dried overnight. Then, the plates were stained with 50 µL of 0.4% SRB solution in 1% acetic acid for 15 min. The excess stain was rinsed off by placing the plates under running 1% acetic acid and allowed to dry at room temperature overnight. SRB staining was rinsed with 150 µL tris(hydroxymethyl)aminomethane solution pH = 8.8 (TRIS-base), and the optical density (OD) was read at 492 nm. Each assay was performed in triplicate and assays were repeated at least three times. The comparison of the average optical density of the growth in control wells with that in the sample wells allowed the estimation of the percentage of cell growth, using the following equation: % Cell Growth = (mean ODcompound − mean ODday zero plate)/(mean ODcells − mean ODday zero plate) × 100
# (§2) The results obtained were adjusted by the day zero plate (wells containing cells growing for only 24 h) and normalized by the control cells (wells with untreated cells) to obtain the rate of viable cells.
# CDK1 = CDK1 ELISA in Suit-2; assay type: cell-based, human; conditions: Suit-2, 10 µM, 24 h, vs DMSO control, p < 0.01
# Protocol: The expression of CDK1 was detected and quantified using an Enzyme-Linked Immunosorbent Assay (ELISA, Human cyclin-dependent kinase 1 (CDK1) ELISA Kit, Catalog Number: MBS707090) according to the manufacturer’s protocol and our previous studies. Volumes of 100 µL of the standard and the sample were added for each well, and the plates were incubated for 2 h at 37 °C. Then, the liquid was removed, and 100 µL of biotin-antibody was added to each well; the plates were then incubated for 1 h at 37 °C. The medium was removed, and the plates were washed with wash buffer (200 µL). Subsequently, 100 µL of HRP-avidin was added to each well, and the plates were incubated for 1 h at 37 °C. The washing process was repeated five times. At the end, 90 µL of TMB substrate was added to each well, and the plates were incubated for 30 min at 37 °C in the dark. Finally, 50 µL of stop solution was added to each well. The optical density of each well was determined using a microplate reader set to 450 nm.
# Suit-2 cells [1] = assay: SRB antiproliferative assay, Suit-2; assay type: cell-based, human
# Protocol: as §1, §2
# BxPC-3 cells [2] = assay: SRB antiproliferative assay, BxPC-3; assay type: cell-based, human
# Protocol: as §1, §2
# BxPC-3 cells [3] = assay: Scratch wound-healing assay, BxPC-3; assay type: cell-based, human; conditions: BxPC-3, 8 h, 4 × IC50, untreated = 100% wound closure
# Protocol: Cell migration was assessed using a wound-healing assay, as described previously. A total of 5 × 10^4 cells/well were seeded in a 96-well plate, to form a confluent monolayer. Scratches were created in confluent cell layers using the sterile scratch tool. The detached cells following scratch induction were removed and new medium was added to the wells. Cells were next treated with compounds 3b and 5b at a concentration of 4 × IC50. Cells growing in a complete medium were maintained at 37 °C with a supply of 5% CO2/95% air atmosphere and 100% relative humidity. The progress of wound closure was observed and documented at various time points (0th, 4th, 8th, 20th, and 24th h) using phase-contrast microscopy. Pictures of the plates were taken using the Universal Grab 6.3 software (DCILabs) from a computer connected to a Leica microscope with a JAI TMC-1327 camera.
# The percentage of migration was calculated using the following equation:%Migration = (Width of the wound at T = 0 − Width of the wound at T = X)/(Width of the wound at T = 0) × 100
# PDAC-3 cells = assay: Cell-cycle analysis by PI flow cytometry, PDAC-3; assay type: cell-based, human
# Protocol: (§3) Cell cycle perturbation was analyzed by flow cytometry. Optimized numbers of cells (5 × 10^5 cells/mL) were seeded in 6-well plates. […] After treatment, the cells were harvested by trypsinization (250 µL trypsin-EDTA/well), incubated until the cells detached, re-suspended using the same medium used for culture, collected in specific FACS (Fluorescence Activated Cell Sorting) tubes, and washed with 1.5 mL phosphate-buffered saline (PBS). The samples were then centrifuged to form a pellet (5 min at 1500 rpm). These pellets were fixed in 1 mL of ice-cold 70% ethanol, added drop by drop during vortex, and placed in the refrigerator at 4 °C. After overnight incubation, the cells were washed twice with PBS, centrifuged (5 min at 1500 rpm), re-suspended in […] of RNase ([…]) and incubated for 30 min at 37 °C. Finally, […] of propidium iodide solution (PI, […]) was added, and the cell distribution in the various phases of the cell cycle was analyzed in a FACS Calibur instrument. Data analysis was carried out with FACSdiva software (Becton Dickinson), while cell cycle distribution was determined using Modfit software (Verity-Software, Topsham, ME, USA).
# Panc-1 cells = assay: SRB antiproliferative assay, Panc-1; assay type: cell-based, human
# Protocol: as §1, §2
# Suit-2 cells [4] = assay: Cell-cycle analysis by PI flow cytometry, Suit-2; assay type: cell-based, human
# Protocol: as §3
# [5] = Suit-2, 2 μM, 24 h (control 23%)
# [6] = Suit-2, 4-fold IC50, 24 h (control 23%)
structure (smiles),measurement,setting,value
"Cn1cc(-c2nnc(-c3cn(C)c4ncccc34)o2)c2ccccc21 [3b, 1-methyl-3-[5-(1-methyl-1H-indol-3-yl)-1,3,4-oxadiazol-2-yl]-7-azaindole]",IC50,PDAC cells,1.4 to 8.1 µM
same,Cell growth percentage,"Capan-1 cells; Capan-1, 10 μM, 72 h exposure",18.33%
same,IC50,"Capan-1 cells; Homo sapiens, Capan-1, 72 h, mean ± SEM, read-out: Half-maximal inhibitory concentration (IC50)",2600 ± 620 nM
same,CDK1 expression by ELISA,CDK1,reduction in CDK1 expression
same,IC50,"Suit-2 cells [1]; Homo sapiens, Suit-2, 72 h, mean ± SEM, read-out: Half-maximal inhibitory concentration (IC50)",1400 ± 740 nM
same,Cell growth percentage,"Suit-2 cells [1]; Suit-2, 10 μM, 72 h exposure",18.34%
same,Cell growth percentage,"BxPC-3 cells [2]; BxPC-3, 10 μM, 72 h exposure",11.10%
same,IC50,"BxPC-3 cells [2]; Homo sapiens, BxPC-3, 72 h, mean ± SEM, read-out: Half-maximal inhibitory concentration (IC50)",2100 ± 6 nM
same,percentage of cells migrating,BxPC-3 cells [3],39%
same,percentage of cells in G2-M phase,"PDAC-3 cells; PDAC-3, 2 μM, 24 h (control 16%)",23%
same,percentage of cells in S phase,"PDAC-3 cells; PDAC-3, 2 μM, 24 h (control 25%)",23%
same,percentage of cells in G0-G1 phase,"PDAC-3 cells; PDAC-3, 2 μM, 24 h (control 59%)",54%
same,percentage of cells in G2-M phase,"PDAC-3 cells; PDAC-3, 4-fold IC50, 24 h (control 16%)",52%
same,percentage of cells in S phase,"PDAC-3 cells; PDAC-3, 4-fold IC50, 24 h (control 25%)",19%
same,percentage of cells in G0-G1 phase,"PDAC-3 cells; PDAC-3, 4-fold IC50, 24 h (control 59%)",29%
same,IC50,"Panc-1 cells; Homo sapiens, Panc-1, 72 h, mean ± SEM, read-out: Half-maximal inhibitory concentration (IC50)",2500 ± 550 nM
same,Cell growth percentage,"Panc-1 cells; Panc-1, 10 μM, 72 h exposure",9.12%
same,melting point,,239 °C
same,percentage of cells in G2-M phase,Suit-2 cells [4]; [5],75%
same,percentage of cells in S phase,Suit-2 cells [4]; [5],15%
same,percentage of cells in G0-G1 phase,"Suit-2 cells [4]; Suit-2, 2 μM, 24 h (control 54%)",10%
same,percentage of cells in G2-M phase,Suit-2 cells [4]; [6],76%
same,percentage of cells in S phase,Suit-2 cells [4]; [6],14%
same,percentage of cells in G0-G1 phase,"Suit-2 cells [4]; Suit-2, 4-fold IC50, 24 h (control 54%)",10%
